Like-named read-outs stand apart in the source and are kept apart here. Some results are limits rather than exact numbers.

One assay concerns the target T1, LOXL2 (Homo sapiens, UniProt Q9Y4K0).
T1 construct: purchased R&D Systems/Bio-techne
T1 sequence (Q9Y4K0 26-774): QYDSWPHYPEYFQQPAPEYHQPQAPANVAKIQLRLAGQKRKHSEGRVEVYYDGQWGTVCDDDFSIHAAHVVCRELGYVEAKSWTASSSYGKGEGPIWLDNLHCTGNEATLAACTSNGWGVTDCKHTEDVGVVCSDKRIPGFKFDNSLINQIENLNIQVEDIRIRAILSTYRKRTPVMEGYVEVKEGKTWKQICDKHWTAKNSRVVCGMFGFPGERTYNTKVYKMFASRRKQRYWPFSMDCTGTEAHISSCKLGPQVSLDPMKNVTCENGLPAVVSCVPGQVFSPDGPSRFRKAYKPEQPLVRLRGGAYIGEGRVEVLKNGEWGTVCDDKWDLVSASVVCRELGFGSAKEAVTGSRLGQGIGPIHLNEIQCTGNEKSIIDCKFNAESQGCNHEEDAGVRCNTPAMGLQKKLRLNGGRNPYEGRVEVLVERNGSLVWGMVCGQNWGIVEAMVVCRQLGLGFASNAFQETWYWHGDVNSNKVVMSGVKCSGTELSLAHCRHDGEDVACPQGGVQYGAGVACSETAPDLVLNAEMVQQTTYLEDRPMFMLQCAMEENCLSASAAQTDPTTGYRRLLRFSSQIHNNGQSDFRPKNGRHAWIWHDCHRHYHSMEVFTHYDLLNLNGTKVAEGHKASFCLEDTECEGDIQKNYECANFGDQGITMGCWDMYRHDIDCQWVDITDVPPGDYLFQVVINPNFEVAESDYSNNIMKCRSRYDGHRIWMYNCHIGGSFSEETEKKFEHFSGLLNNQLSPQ
The assay can be described thus: LOX isoform activity assay (ROS Glo), LOXL2. The assay is classed as biochemical. The essentials:
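Human LOXL2 in 100 mM CHES pH 9 (1 M urea, 100 mM NaCl, 1 mM MgCl2, 0.5% BSA, 0.05% pluronic F-127) preincubated with compound (0.003–100 μM final) for 20 min, 1 h or 20 h. Cadaverine 19.56 mM and H2O2 25 μM added, 1 h at RT. Luminescence (ROS-Glo luciferin detection) fitted to IC50.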

In assay [1] the target is T2, monoamine oxidase B (MAO-B) (Homo sapiens, UniProt P27338).
T2 construct: purchased Sigma M7441
T2 sequence (P27338 1-520): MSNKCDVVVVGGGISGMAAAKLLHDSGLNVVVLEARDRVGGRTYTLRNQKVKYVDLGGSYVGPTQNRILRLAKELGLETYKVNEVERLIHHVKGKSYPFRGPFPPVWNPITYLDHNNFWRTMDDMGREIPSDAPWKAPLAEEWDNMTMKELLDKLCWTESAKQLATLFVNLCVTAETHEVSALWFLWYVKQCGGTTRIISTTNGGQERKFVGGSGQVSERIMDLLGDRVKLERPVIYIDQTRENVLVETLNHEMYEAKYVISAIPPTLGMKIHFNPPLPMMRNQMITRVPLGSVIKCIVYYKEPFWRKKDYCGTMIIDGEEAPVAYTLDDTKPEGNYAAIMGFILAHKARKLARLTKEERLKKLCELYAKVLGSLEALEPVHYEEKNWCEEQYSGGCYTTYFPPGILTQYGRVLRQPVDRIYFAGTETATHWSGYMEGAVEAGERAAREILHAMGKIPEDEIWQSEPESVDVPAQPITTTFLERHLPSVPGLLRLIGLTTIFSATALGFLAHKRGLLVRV
The assay is described as follows: Amine oxidase activity assay (MAO-Glo), MAO-B. The assay is classed as biochemical. The protocol: The Promega MAO-Glo assay kit (V1402) was used to assess monoamine oxidase A (MAO-A) and monoamine oxidase B (MAO-B) activity. MAO substrate was prepared at 80 μM with the specific MAO-A/B reaction buffer. Overall, 0.5 μl test compound was added to 25 μl MAO substrate at 100, 30, 10, 3, 1, 0.3, 0.1, 0.03, 0.01 and 0.003 μM (final concentration) in a 96-well white, flat bottom plate. Overall, 25 μl of 1:520 dilution of MAO-A enzyme (Promega, V1452) or 25 μl of 1:52 dilution of MAO-B enzyme (Sigma, M7441) in specific MAO-A/B reaction buffer was added to each well (enzyme prepared at 2×final concentration) and plates were incubated for 1 h at room temperature. Finally, 50 μl per well luciferin detection reagent was added and plates were incubated for 20 min at room temperature, protected from light. Luminescence was measured with an integration time of 500 ms per well using a SpectaMax M5 plate reader and resulting IC50 values were calculated using GraphPad Prism software.
In another setting, the DAO and MAO assays were performed in 384-well plates (Greiner) and test compound was added using a Labcyte Echo™ Acoustic Handler for the same final concentrations as in the 96-well setting. Luminescence was measured with BMG LABTECH PHERAstar FS plate reader.

Setting [2] is: 20 hr incubation with enzyme; read-out: LOXL2 IC50 c) 20 hr.
Setting [3] is: 1 hr incubation with enzyme; read-out: LOXL2 IC50 b) 1 hr.

For the compound `CCOc1ccc(N2C[C@H]3CN(CCS(=O)(=O)CCN)C[C@@H]2C(C)(C)C3)cc1` [Example 1, 2-((2-((1R,5S)-6-(4-ethoxyphenyl)-9,9-dimethyl-3,6-diazabicyclo[3.2.2]nonan-3-yl)ethyl)sulfonyl)ethan-1-amine], the IC50 on LOXL2 (setting [2]) was 1600 nM; in assay [1] it was above 100 µM.

On to `NCCS(=O)(=O)CC(=O)N1CCN(c2ccccc2)CC1` [Example 13, 2-((2-Aminoethyl)-sulfonyl)-1-(4-phenylpiperazin-1-yl)ethan-1-one], for which the IC50 at LOXL2 (setting [3]) was 400 nM; in assay [1], above 100 µM.

For `CCOc1ccc(N2C[C@@H]3C[C@H]2CN3C(=O)CS(=O)(=O)CCN)cc1` [Example 8, 2-((2-aminoethyl)-sulfonyl)-1-((1S,4S)-5-(4-ethoxyphenyl)-2,5-diazabicyclo-[2.2.1]heptan-2-yl)-ethan-1-one], the IC50 was 150 nM on LOXL2 (setting [2]) and above 100 µM in assay [1].

Consider `CCOc1ccc(N2C[C@@H]3C[C@H]2CN3CCS(=O)(=O)CCN)cc1` [Example 2, 2-((2-((1S,4S)-5-(4-ethoxyphenyl)-2,5-diazabicyclo[2.2.1]heptan-2-yl)ethyl)sulfonyl)-ethan-1-amine], for which the IC50 at LOXL2 (setting [2]) is 400 nM; in assay [1] it was above 100 µM.

`CCOc1ccc(N2C[C@H]3CN(c4ccc(S(=O)(=O)CCN)cc4)C[C@@H]2C(C)(C)C3)cc1` [Example 33, 2-((4-((1R,5S)-6-(4-ethoxyphenyl)-9,9-dimethyl-3,6-diazabicyclo [3.2.2]nonan-3-yl)phenyl)sulfonyl)ethan-1-amine]: the IC50 at LOXL2 (setting [2]) was 16000 nM; in assay [1], above 100 µM.

For `CCOc1ccc(N2C[C@@H]3C[C@H]2CN3C(=O)C2(S(=O)(=O)CCN)CC2)cc1` [Example 42, (1-((2-Aminoethyl)sulfonyl)cyclopropyl)((1S,4S)-5-(4-ethoxyphenyl)-2,5-diazabicyclo[2.2.1]heptan-2-yl)methanone], the IC50 on LOXL2 (setting [3]) was 11000 nM; in assay [1], above 100 µM.

On to `NCCS(=O)(=O)CC(=O)N1CCN(c2ncccn2)CC1` [Example 12, 2-((2-Aminoethyl)-sulfonyl)-1-(4-(pyrimidin-2-yl)-piperazin-1-yl)ethan-1-one], for which the IC50 at LOXL2 (setting [3]) is 430 nM; in assay [1], above 100 µM.

In the case of `CCOc1ccc(N2C[C@H]3CN(C(=O)CS(=O)(=O)CCN)C[C@@H]2C(C)(C)C3)cc1` [Example 7, 2-((2-aminoethyl)sulfonyl)-1-((1S,5S)-6-(4-ethoxyphenyl)-9,9-dimethyl-3,6-diazabicyclo[3.2.2]nonan-3-yl)ethan-1-one], the IC50 was 270 nM at LOXL2 (setting [2]) and above 100 µM in assay [1].

For the compound `CCOc1ccc(N2C[C@H]3CN(C(=O)NCCS(=O)(=O)CCN)C[C@@H]2C(C)(C)C3)cc1` [Example 38, (1S,5S)—N-(2-((2-aminoethyl)sulfonyl)ethyl)-6-(4-ethoxyphenyl)-9,9-dimethyl-3,6-diazabicyclo[3.2.2]nonane-3-carboxamide], the concentration for half-maximal inhibition (IC50) at LOXL2 (setting [3]) is 580 nM.

For `CCOc1ccc(N2CC3CN(CCS(=O)(=O)CCN)CC3C2)cc1` (centres unmarked) [Example 4, 2-((2-(5-(4-ethoxyphenyl)hexahydropyrolo [3,4-c]pyrrol-2(1H)-yl)ethyl)sulfonyl)ethan-1-amine], the IC50 on LOXL2 (20 min incubation with enzyme; read-out: LOXL2 IC50 a) 20 min) is 7300 nM; in assay [1], above 100 µM.

In the case of `Cc1ccc(S(=O)(=O)N2C[C@H]3CN(C(=O)CS(=O)(=O)CCN)C[C@H]3C2)cc1` [Example 11, 2-((2-aminoethyl)-sulfonyl)-1-(cis-5-tosylhexahydro-pyrrolo[3,4-c]pyrrol-2(1H)-yl)ethan-1-one], the IC50 on LOXL2 (setting [3]) is 170 nM; in assay [1], above 100 µM.

With `CCOC(=O)CCC(C(=O)N1C[C@@H]2C[C@H]1CN2c1ccc(OCC)cc1)S(=O)(=O)CCN` (stereo partly drawn) [Example 41, ethyl 4-((2-aminoethyl)sulfonyl)-5-((1S,4S)-5-(4-ethoxyphenyl)-2,5-diazabicyclo[2.2.1]heptan-2-yl)-5-oxopentanoate], the half-maximal inhibitory concentration (IC50) at LOXL2 (setting [3]) was 3100 nM; in assay [1] it was above 100 µM.
